Experimental data from patent publication US20060067924A1, “Probiotic bacteria and methods” (priority 2003, published 2006).
Entries after “also recorded” stand apart in the source; their conditions may differ.

Legend:
[1] = system: bacterial flora of the chicken ileum; test: 16S rDNA clone library analysis of the ileal bacterial community of chickens fed diets with feed additives; type: in vivo
[2] = system: bacterial community of the chicken ileum; test: T-RFLP analysis (HaeIII) of amplified 16S rDNA from the ileum of chickens fed different diets; type: in vivo; conditions: for main bacterial composition present in TRFLP peaks in ileum: names in order of relative abundance of peaks; for Clostridiales, % peak areas / Lactobacillaceae, % peak areas: T-RFLP
Procedure: A comparative study of bacterial community of the chicken ileum was carried out using 16S rDNA gene analysis. The intestinal microbiota is part of a complex ecosystem. This study examined the effect of the growth promoting antibiotic, virginiamycin, and other commercial diets on the distribution and community structure of intestinal bacterial flora. Bacterial communities in the intestines of chickens were compared using terminal restriction fragment length polymorphism (T-RFLP) analysis targeting the 16S ribosomal DNA combining with 16S rDNA cloning library. The chickens were fed 4 different diets including a commercial corn-soy diet, corn-soy plus growth promotant diet, corn-soy plus monensin, and a wheat diet. A group was also administrated a probiotic at 1 day age and fed a corn-soy diet. After feeding of the birds with the experimental diets, the differences in the bacterial community structures in the ileum were detected in the form of different profiles of terminal restriction fragments (T-RFs). Some of the T-RFs were commonly distributed, i.e., they were found in all samples, while others varied in distribution and correlated with specific diets. Significant differences were found between the control group (corn-soy diet) and the experimental groups by pairwise-analyzing the T-RFs=profiles.
The bacterial populations are identified using genetic analysis of the 16S RNA gene by GeneScan-Terminal Restriction Fragment Length Polymorphism (T-RFLP) using 16S universal primers and cloning and DNA sequencing of 16S PCR products. GeneScan T-RFLP requires the following steps: labeling the PCR product by using labeled primers; digesting the PCR product with restriction enzymes; separating fragments on gel; and detecting terminal fragments. The sizes of terminal fragments can be calculated based on DNA sequence analysis.
In some experiments, the PCR products were loaded onto a gel from which bands were cut and eluted in 35 μl of sterile filtered distilled water using a QIAquick gel extraction kit (Qiagen, Chatsworth, Calif.). The concentrations of the fluorescently labeled PCR products were measured on a spectrophotometer (DU Series 500, Beckman, Fullerton, Calif.). About 100 ng of purified PCR products was digested in a 10 μl volume for 4 hours at 37 C with 10 U of HaeIII (isoschizomer BsuRI; Fermentas, MBI). Restriction digests were desalted with the QIAquick Nucleotide Removal Kit (Qiagen). The fluorescently labeled terminal restriction fragments (T-RFs) were analyzed by electrophoresis on an automatic sequence analyzer (ABI PRISM 310 DNA Sequencer; PE Biosystems, Foster City, Calif.) in GeneScan mode. Aliquots (2 ul) of T-RFs were mixed with 2 μl of deionized formamide, 0.5 μl of DNA fragment length size standard GS-500 (PE Biosystems). The T-RF mixture was denatured at 94° C. for 5 min and immediately chilled on ice prior to electrophoresis. After electrophoresis, the lengths of fluorescently labeled T-RFs were determined by comparison with internal standards by using GeneScan software (ABI). For each sample, peaks over a threshold of 50 units above background fluorescence were analyzed by manually aligning fragments to the size standard. To avoid detection of primers and uncertainties of size determination, terminal fragments smaller than 35 bp and larger than 525 bp were excluded from the analysis. Reproducibility of patterns was confirmed for repeated T-RFLP analysis of 16S gene amplification using the same DNA extracts from pooled samples.
The information index (Shannon and Weaver (1963) “The Mathematical Theory of Communication,” p. 117, University of Illinois Press, Urbana, Ill.) was used to initially evaluate the diversity of the microbial communities. [formula] Where n is possible categories in a data set and that their proportions are pi, . . . , pn. The H values are the measure of diversity for this system. […]

[3] = system: cecum flora; test: 16S rDNA clone library analysis of the cecum flora, monensin treatment; type: in vivo, chicken; conditions: 28 d
[4] = system: Lachnospira multiparus-like organisms; conditions: monensin supplementation; cited from earlier work
[5] = pigs, 50 ppm, compared to controls; cited from earlier work
[6] = ileum, 7 days of age, 16S rDNA clone library
[7] = ileum, 28 days of age, 16S rDNA clone library
[8] = vs control fed the same feed without the antibiotic

**Q.** Which results are given for `CC[C@@]1([C@@H]2O[C@@H]([C@H]3O[C@@](O)(CO)[C@H](C)C[C@@H]3C)C[C@@H]2C)CC[C@H]([C@]2(C)CC[C@]3(C[C@H](O)[C@@H](C)[C@@H]([C@@H](C)[C@@H](OC)[C@H](C)C(=O)O)O3)O2)O1` [Monensin, monensin]?
**A.** ileum flora: Clostridium spp. ([1]; 3 d): 1 [17] %; ileum flora: L. crispatus ([1]; 3 d): 1 [4] %; ileum flora: L. salivarius ([1]; 3 d): 1%; ileum: Clostridiaceae ([1]; 3 d): 2 [17] %; ileum: Enterococcus ([1]; 3 d): 9 [3] %; ileum: Lactobacillus spp. ([1]; 3 d): 3 [60] %; ileum: α-Proteobacteria ([1]; 3 d): 1 [1] %; ileum: β-Proteobacteria ([1]; 3 d): 3 [5] %; ileum: δ-Probeobacteria ([1]; 3 d): 82 [2] %; ileum flora: C. irregularis ([1]; 7 d): 45%; ileum flora: C. lituseburense ([1]; 7 d): 24%; ileum flora: Clostridium spp. ([1]; 7 d): 13 [1] %; ileum flora: L. acidophilus ([1]; 7 d): 4 [57] %; ileum flora: L. crispatus ([1]; 7 d): 4 [1] %; ileum flora: L. reuteri ([1]; 7 d): 3%; ileum: Clostridiaceae ([1]; 7 d): 84 [1] %; ileum: Enterococcus ([1]; 7 d): 3 [16] %; ileum: Lactobacillus spp. ([1]; 7 d): 11 [64] %; ileum flora: C. lituseburense ([1]; 14 d): 31%; ileum flora: L. crispatus ([1]; 14 d): 17 [8] %; ileum: Bifidobacter ([1]; 14 d): 2%; ileum: Clostridiaceae ([1]; 14 d): 44 [7] %; ileum: Enterococcus ([1]; 14 d): 33 [13] %; ileum: Lactobacillus spp. ([1]; 14 d): 21 [64] %; ileum flora: C. irregularis ([1]; 21 d): 19%; ileum flora: C. lituseburense ([1]; 21 d): 22%; ileum flora: L. crispatus ([1]; 21 d): 19 [3] %; ileum flora: L. salivarius ([1]; 21 d): 7 [5] %; ileum: Bacteroides ([1]; 21 d): 2 [3] %; ileum: Clostridiaceae ([1]; 21 d): 47 [9] %; ileum: Enterococcus ([1]; 21 d): 11 [3] %; ileum: Lactobacillus spp. ([1]; 21 d): 27 [66] %; ileum flora: C. irregularis ([1]; 28 d): 53%; ileum flora: C. lituseburense ([1]; 28 d): 7%; ileum flora: Clostridium spp. ([1]; 28 d): 1 [6] %; ileum flora: L. crispatus ([1]; 28 d): 17 [75] %; ileum flora: L. reuteri ([1]; 28 d): 11 [7] %; ileum flora: L. salivarius ([1]; 28 d): 2 [2] %; ileum: Bacillus ([1]; 28 d): 1%; ileum: Clostridiaceae ([1]; 28 d): 62 [7] %; ileum: Enterococcus ([1]; 28 d): 1 [3] %; ileum: Lactobacillus spp. ([1]; 28 d): 32 [88] %; ileum: Streptococcus ([1]; 28 d): 1 [1] %; ileum flora: C. irregularis ([1]; 49 d): 3%; ileum flora: C. lituseburense ([1]; 49 d): 42%; ileum flora: Clostridium spp. ([1]; 49 d): 1 [19] %; ileum flora: L. aviaries ([1]; 49 d): 16%; ileum flora: L. crispatus ([1]; 49 d): 20 [36] %; ileum flora: L. reuteri ([1]; 49 d): 5 [1] %; ileum flora: L. salivarius ([1]; 49 d): 3 [28] %; ileum: Bacillus ([1]; 49 d): 5 [4] %; ileum: Bacteroides ([1]; 49 d): 1 [1] %; ileum: Clostridiaceae ([1]; 49 d): 46 [19] %; ileum: Enterococcus ([1]; 49 d): 5 [2] %; ileum: Lactobacillus spp. ([1]; 49 d): 45 [70] %; ileum: Streptococcus ([1]; 49 d): 5%; Clostridiales, % of seq [1, 6]: 82.4%; Enterococcus/Streptococcus, % of seq [1, 6]: 2.7%; Lactobacillaceae, % of seq [1, 6]: 12.9%; Proteobacteria α, % of seq [1, 6]: 1.35%; Bacillaceae, % of seq [1, 7]: 1.05%; Clostridiales, % of seq [1, 7]: 63.2%; Enterococcus/Streptococcus, % of seq [1, 7]: 2.1%; Lactobacillaceae, % of seq [1, 7]: 31.6%; Proteobacteria α, % of seq [1, 7]: 2.1%; clostridial sequences [1, 8]: increased; overall numbers of Lactobacillus sequences [1, 8]: reduced; main bacterial composition present in TRFLP peaks in ileum ([2]; 3 day): Enterococcus sp; also recorded: E. coli; main bacterial composition present in TRFLP peaks in ileum ([2]; 7 day): C. irregularis; also recorded: C. lituseburense; also recorded: L. acidophilus; main bacterial composition present in TRFLP peaks in ileum ([2]; 14 day): C. lituseburense; also recorded: C. irregularis; also recorded: Clostridium sp; also recorded: L. crispatus; main bacterial composition present in TRFLP peaks in ileum ([2]; 21 day): C. irregularis; also recorded: C. lituseburense; also recorded: L. crispatus; main bacterial composition present in TRFLP peaks in ileum ([2]; 28 day): C. irregularis; also recorded: L. crispatus; also recorded: L. reuteri; main bacterial composition present in TRFLP peaks in ileum ([2]; 49 day): C. lituseburense; also recorded: L. crispatus; inhibition of C. irregularis ([2]; chicken ileum): not inhibited; Clostridiales, % peak areas ([2]; ileum, 7 days of age): 92.89%; Lactobacillaceae, % peak areas ([2]; ileum, 7 days of age): 7.1%; Clostridiales, % peak areas ([2]; ileum, 28 days of age): 73.2%; Lactobacillaceae, % peak areas ([2]; ileum, 28 days of age): 27.2%; relative peak areas of Lactobacillus ([2]; ileum, whole group (control 73.22%)): 19.25%; cecum flora: Actinobacterium [3]: 43%; cecum flora: Bacteroides [3]: 1%; cecum flora: Clostridium spp. [3]: 27%; cecum flora: Eubacterium [3]: 12%; cecum flora: Lactobacillus spp. [3]: 6%; cecum flora: Ruminococcus [3]: 10%; decrease of relative numbers of Lachnospira multiparus-like organisms [4]: about 2 fold

**Q.** For virginiamycin, which “Lactobacillus species in the ileum vs controls” value ([1]; 28 and 49 days of age) is on record?
**A.** significantly fewer

**Q.** And the “enhancement in feed conversion” value [5]?
**A.** 7%

**Q.** And the “improvement in growth rate” value [5]?
**A.** 10%
